Test results from the supplement of paper PMC11061612.

Key:
[1] = test system: EW-22 (Ewing's Sarcoma); assay: Bliss excess, mean over the matrix (fraction); higher = more synergy
How it was run: (§1)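 Cell lines in DMEM/F12 or RPMI with 10% FBS were plated in 1536-well plates, held 24 hours at 37°C, 5% CO2, then given two-drug dose matrices for 72 hours (DMSO typically 0.2%). Viability was read by CellTiter-Glo 2.0 luminescence and scaled as inhibition from 0 (vehicle wells) to 1 (blank wells). Combination Emax is the second-highest inhibition in the matrix; Bliss excess is observed combination effect minus expected EA + EB − EA·EB, EA and EB being single-agent effects.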

[2] = test system: SK-LMS-1 (Other Solid Carcinomas); assay: as above
How it was run: as §1

[3] = test system: SLVL (B-Cell Non-Hodgkin's Lymphoma); assay: as above
How it was run: as §1

[4] = test system: P31-FUJ (Acute Myeloid Leukemia); assay: as above
How it was run: as §1

[5] = test system: HLE (Hepatocellular Carcinoma); assay: as above
How it was run: as §1

[6] = test system: SW48 (Colorectal Carcinoma); assay: as above
How it was run: as §1

[7] = test system: MEG-01 (Chronic Myelogenous Leukemia); assay: as above
How it was run: as §1

[8] = test system: CAL-39 (Other Solid Carcinomas); assay: as above
How it was run: as §1

[9] = test system: BICR78 (Oral Cavity Carcinoma); assay: as above
How it was run: as §1

[10] = test system: SW948 (Colorectal Carcinoma); assay: as above
How it was run: as §1

[11] = test system: SK-MEL-1 (Melanoma); assay: as above
How it was run: as §1

[12] = test system: FU-OV-1 (Ovarian Carcinoma); assay: as above
How it was run: as §1

[13] = test system: MSTO-211H (Mesothelioma); assay: as above
How it was run: as §1

[14] = test system: YT (Other Blood Carcinomas); assay: combination Emax (second highest fraction inhibited in the dose matrix, 72 h); higher = more inhibition; extreme values may be limits of the assay
How it was run: as §1

[15] = test system: P31-FUJ (Acute Myeloid Leukemia); assay: as above
How it was run: as §1

[16] = test system: SW48 (Colorectal Carcinoma); assay: as above
How it was run: as §1

[17] = test system: CAL-39 (Other Solid Carcinomas); assay: as above
How it was run: as §1

[18] = test system: FU-OV-1 (Ovarian Carcinoma); assay: as above
How it was run: as §1

[19] = test system: DOK (Oral Cavity Carcinoma); assay: as above
How it was run: as §1

[20] = test system: NOMO-1 (Acute Myeloid Leukemia); assay: as above
How it was run: as §1
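Throughout, for Bliss excess, mean over the matrix: after 72 h of two-drug dosing.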

SMILES | Bliss excess [1] | Bliss excess [2] | Bliss excess [3] | Bliss excess [4] | Bliss excess [5] | Bliss excess [6] | Bliss excess [7] | Bliss excess [8] | Bliss excess [9] | Bliss excess [10] | Bliss excess [11] | Bliss excess [12] | Bliss excess [13] | combination Emax [14] | combination Emax [15] | combination Emax [16] | combination Emax [17] | combination Emax [18] | combination Emax [19] | combination Emax [20]
N#Cc1cnc(Nc2cc(NC[C@H]3CNCCO3)c(C(F)(F)F)cn2)cn1 [SRA737] + Nc1ccn([C@@H]2O[C@H](CO)[C@@H](O)C2(F)F)c(=O)n1 [Gemcitabine] (first compound max 10 µM, 7x7, partner max 0.3 µM) | -0.0202 | 0.0202 | 0.0004 | 0.057 | 0.029 | 0.0107 | -0.0324 | 0.0461 | 0.068 | 0.079 | 0.0048 | -0.0233 | -0.0082 | 1 | 1 | 0.841 | 0.932 | 0.584 | 0.704 | 1
C[C@@H](Nc1cc(F)cc(F)c1)c1cc(C(=O)N(C)C)cc2c(=O)cc(N3CCOCC3)oc12 [AZD8186] + CC(=O)c1c(C)c2cnc(Nc3ccc(N4CCNCC4)cn3)nc2n(C2CCCC2)c1=O [Palbociclib] (first compound max 10 µM, 7x7, partner max 10 µM) | 0.05 | 0.147 | 0.0035 | -0.0164 | 0.0326 | 0.0715 | -0.0585 | 0.125 | -0.0525 | -0.0457 | 0.0098 | -0.0311 | 0.135 | 0.448 | 0.277 | 0.617 | 0.772 | 0.444 | 0.538 | 0.568
N#Cc1cnc(Nc2cc(NC[C@H]3CNCCO3)c(C(F)(F)F)cn2)cn1 [SRA737] + CCc1c2c(nc3ccc(O)cc13)-c1cc3c(c(=O)n1C2)COC(=O)[C@]3(O)CC [SN-38] (first compound max 10 µM, 7x7, partner max 0.3 µM) | -0.0592 | -0.0248 | -0.0909 | -0.0541 | -0.0755 | -0.0411 | 0.0468 | -0.0157 | -0.0015 | 0.154 | – | -0.0076 | -0.024 | 0.987 | 0.984 | 0.854 | 0.93 | 0.495 | 0.582 | 0.997
C=CCn1c(=O)c2cnc(Nc3ccc(N4CCN(C)CC4)cc3)nc2n1-c1cccc(C(C)(C)O)n1 [AZD1775] + Nc1ccn([C@@H]2O[C@H](CO)[C@@H](O)C2(F)F)c(=O)n1 [Gemcitabine] (first compound max 1 µM, partner max 0.3 µM) | -0.0431 | -0.027 | -0.0357 | 0.0797 | 0.0609 | 0.0828 | -0.0001 | 0.0328 | 0.0412 | 0.104 | -0.0469 | -0.0741 | 0.0226 | 0.997 | 1 | 0.887 | 0.914 | 0.633 | 0.66 | 0.992
C[C@@H]1COCCN1c1cc(C2([S@](C)(=N)=O)CC2)nc(-c2ccnc3[nH]ccc23)n1 [AZD6738] + C1CC(C1)(C(=O)[O-])C(=O)[O-].N.N.[Pt+2] [Carboplatin] (first compound max 10 µM, 7x7, partner max 10 µM) | -0.0301 | -0.032 | -0.0419 | -0.0078 | 0.0173 | -0.0577 | -0.0513 | -0.0128 | -0.0459 | -0.0659 | -0.048 | -0.0576 | -0.0319 | 0.76 | 0.922 | 0.673 | 0.609 | 0.254 | 0.459 | 0.946
CN(CCO)CC[C@H](CSc1ccccc1)Nc1ccc(S(=O)(=O)NC(=O)c2ccc(N3CCC([C@@H](O)c4ccccc4-c4ccc(Cl)cc4)CC3)cc2)cc1S(=O)(=O)C(F)(F)F [AZD4320] + CS(=O)(=O)CCNCc1ccc(-c2ccc3ncnc(Nc4ccc(OCc5cccc(F)c5)c(Cl)c4)c3c2)o1 [Lapatinib] (first compound max 1 µM, 7x7, partner max 10 µM) | 0.0967 | 0.0357 | 0.0675 | 0.109 | 0.0535 | 0.14 | 0.103 | 0.0372 | 0.0251 | 0.0049 | -0.0444 | -0.0203 | 0.0275 | 0.451 | 0.959 | 0.969 | 0.97 | 0.59 | 0.982 | 0.709
CC1(C)CCC(CN2CCN(c3ccc(C(=O)NS(=O)(=O)c4ccc(NCC5CCOCC5)c([N+](=O)[O-])c4)c(Oc4cnc5[nH]ccc5c4)c3)CC2)=C(c2ccc(Cl)cc2)C1 [Venetoclax] + CS(=O)(=O)CCNCc1ccc(-c2ccc3ncnc(Nc4ccc(OCc5cccc(F)c5)c(Cl)c4)c3c2)o1 [Lapatinib] (first compound max 1 µM, 7x7, partner max 10 µM) | 0.0031 | -0.0127 | 0.017 | 0.0811 | -0.0347 | 0.0163 | -0.0101 | -0.0062 | -0.0451 | -0.0407 | 0.0097 | -0.0697 | -0.019 | 0.295 | 0.581 | 0.391 | 0.913 | 0.324 | 0.645 | 0.319
